Where two headings read alike, the source gives them in different places.
Tests used:
Format in all cases: in vivo, Magnaporthe grisea
rice blast disease [1] = conditions: application concentration 20 ppm; rice (Nanatsuboshi), spray; lesion area after 5 days
rice blast disease [2] = conditions: application concentration 50 ppm; rice (Nanatsuboshi), spray; lesion area after 6 days
rice blast disease [3] = conditions: application concentration 10 ppm; rice (Nanatsuboshi), spray; lesion area after 6 days; average of duplicate

What does the source list for `COC(=O)NCc1cc(/C(C)=N/OCc2cccc(C)n2)ccc1Cl` [Pyribencarb, pyribencarb]?
Control value (rice blast disease [1]): 40.0; Control value (rice blast disease [2]): 86.0; Control value (rice blast disease [3]): 18.8

From patent publication US9101137B2 (priority 2011, dated 2015)
